Experimental data as given in ChEMBL document CHEMBL1158768, “Isolation and structure elucidation of the new fungal metabolite (-)-xylariamide A” (J Nat Prod, 2005).

Key:
Assay type in all cases: organism-based
Settings in all cases: in vivo
Artemia salina [1] = experiment: Toxicity in Artemia salina at 20 ug/mL
Artemia salina [2] = experiment: Toxicity in Artemia salina at 200 ug/mL
Artemia salina [3] = experiment: Toxicity in Artemia salina

SMILES | Activity (Artemia salina [1]) | Activity (Artemia salina [2]) | Activity (Artemia salina [3])
COC(=O)/C=C/C(=O)N[C@H](Cc1ccc(O)c(Cl)c1)C(=O)O [(-)-XYLARIAMIDE A] | 0% | 71% | –
COC(=O)/C=C/C(=O)N[C@@H](Cc1ccc(O)c(Cl)c1)C(=O)O [(+)-XYLARIAMIDE A] | – | – | Non-toxic
